Experimental data reported in publication PMC7316778 (Nature Communications, 2020).
Where “and” joins values, the source holds several entries; their conditions need not be identical. Equal values may be shown once. Read-outs that look alike come from different tables or passages of the source.

Assays:
Assay in all cases: SelectScreen kinase assay
[1] = target: T1, EPHA3 (Homo sapiens, UniProt P29320)
T1 sequence (P29320 21-983): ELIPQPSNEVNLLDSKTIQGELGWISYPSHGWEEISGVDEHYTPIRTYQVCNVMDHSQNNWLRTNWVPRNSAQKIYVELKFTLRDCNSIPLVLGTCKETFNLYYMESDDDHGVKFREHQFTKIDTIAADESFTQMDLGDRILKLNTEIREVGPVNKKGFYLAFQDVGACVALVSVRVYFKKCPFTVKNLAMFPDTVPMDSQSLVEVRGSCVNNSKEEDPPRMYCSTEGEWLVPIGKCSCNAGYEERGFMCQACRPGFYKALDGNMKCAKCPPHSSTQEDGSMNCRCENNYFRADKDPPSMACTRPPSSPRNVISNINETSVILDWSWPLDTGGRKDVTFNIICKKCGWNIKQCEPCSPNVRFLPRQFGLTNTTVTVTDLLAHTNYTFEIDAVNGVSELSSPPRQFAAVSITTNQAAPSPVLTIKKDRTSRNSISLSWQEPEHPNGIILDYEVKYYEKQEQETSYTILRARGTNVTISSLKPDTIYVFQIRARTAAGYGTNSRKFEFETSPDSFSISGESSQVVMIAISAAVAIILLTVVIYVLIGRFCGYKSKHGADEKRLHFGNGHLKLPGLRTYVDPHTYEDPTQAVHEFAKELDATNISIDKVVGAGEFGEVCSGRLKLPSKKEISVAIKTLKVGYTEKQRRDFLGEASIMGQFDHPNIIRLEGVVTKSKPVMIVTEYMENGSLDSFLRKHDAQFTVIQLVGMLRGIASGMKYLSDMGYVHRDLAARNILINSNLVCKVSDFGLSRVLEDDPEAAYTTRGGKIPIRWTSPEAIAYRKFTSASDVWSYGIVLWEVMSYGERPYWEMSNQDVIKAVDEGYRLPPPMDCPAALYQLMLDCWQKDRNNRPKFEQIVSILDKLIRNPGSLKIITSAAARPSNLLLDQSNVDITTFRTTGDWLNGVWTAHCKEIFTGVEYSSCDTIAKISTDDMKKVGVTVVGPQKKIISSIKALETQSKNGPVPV
Description: (§1) Selectivity profiling assays were performed by the Invitrogen SelectScreen™ Services. […] The concentration of ATP was selected to be equal to the KM, unless indicated otherwise.

[2] = target: ERBB2 (HER2) (Homo sapiens, UniProt P04626); settings: for Inhibition at 1 µM (%): ERBB2 (HER2), ZLYTE, ATP Km app
Chain of ERBB2 (HER2) (P04626 23-1255): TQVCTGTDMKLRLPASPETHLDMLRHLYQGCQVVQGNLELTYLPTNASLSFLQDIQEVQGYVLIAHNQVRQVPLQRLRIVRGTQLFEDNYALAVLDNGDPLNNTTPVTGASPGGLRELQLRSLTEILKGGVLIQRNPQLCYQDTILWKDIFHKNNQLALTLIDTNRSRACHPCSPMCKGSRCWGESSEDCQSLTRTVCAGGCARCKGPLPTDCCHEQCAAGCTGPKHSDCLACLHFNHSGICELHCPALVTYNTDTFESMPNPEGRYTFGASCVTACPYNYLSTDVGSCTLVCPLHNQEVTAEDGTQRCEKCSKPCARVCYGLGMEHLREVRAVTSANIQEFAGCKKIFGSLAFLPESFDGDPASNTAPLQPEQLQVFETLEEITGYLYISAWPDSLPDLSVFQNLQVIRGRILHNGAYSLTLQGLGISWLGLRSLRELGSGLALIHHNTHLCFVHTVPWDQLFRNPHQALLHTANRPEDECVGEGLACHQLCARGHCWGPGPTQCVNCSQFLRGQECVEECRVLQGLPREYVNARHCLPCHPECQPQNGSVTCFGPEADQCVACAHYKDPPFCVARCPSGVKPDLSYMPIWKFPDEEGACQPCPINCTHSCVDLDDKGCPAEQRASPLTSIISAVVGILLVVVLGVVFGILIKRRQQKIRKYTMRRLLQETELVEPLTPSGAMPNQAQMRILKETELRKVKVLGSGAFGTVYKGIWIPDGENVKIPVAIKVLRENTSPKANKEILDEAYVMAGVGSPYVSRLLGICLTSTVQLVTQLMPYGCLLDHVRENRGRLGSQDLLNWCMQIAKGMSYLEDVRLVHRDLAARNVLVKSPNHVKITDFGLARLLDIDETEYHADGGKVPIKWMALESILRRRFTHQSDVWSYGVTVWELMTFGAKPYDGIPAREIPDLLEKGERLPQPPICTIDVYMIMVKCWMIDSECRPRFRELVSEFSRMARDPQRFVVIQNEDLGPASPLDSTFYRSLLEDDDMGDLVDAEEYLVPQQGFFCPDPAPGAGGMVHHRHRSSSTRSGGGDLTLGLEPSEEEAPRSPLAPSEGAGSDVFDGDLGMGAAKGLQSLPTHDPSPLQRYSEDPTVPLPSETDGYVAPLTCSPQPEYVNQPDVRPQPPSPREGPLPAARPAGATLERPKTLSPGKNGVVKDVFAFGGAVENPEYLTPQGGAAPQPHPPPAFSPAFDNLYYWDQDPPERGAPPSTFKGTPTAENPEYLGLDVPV
Description: as §1

[3] = target: CAMKK2 (CaMKK beta) (Homo sapiens, UniProt Q96RR4)
Chain of CAMKK2 (CaMKK beta) (Q96RR4 whole entry): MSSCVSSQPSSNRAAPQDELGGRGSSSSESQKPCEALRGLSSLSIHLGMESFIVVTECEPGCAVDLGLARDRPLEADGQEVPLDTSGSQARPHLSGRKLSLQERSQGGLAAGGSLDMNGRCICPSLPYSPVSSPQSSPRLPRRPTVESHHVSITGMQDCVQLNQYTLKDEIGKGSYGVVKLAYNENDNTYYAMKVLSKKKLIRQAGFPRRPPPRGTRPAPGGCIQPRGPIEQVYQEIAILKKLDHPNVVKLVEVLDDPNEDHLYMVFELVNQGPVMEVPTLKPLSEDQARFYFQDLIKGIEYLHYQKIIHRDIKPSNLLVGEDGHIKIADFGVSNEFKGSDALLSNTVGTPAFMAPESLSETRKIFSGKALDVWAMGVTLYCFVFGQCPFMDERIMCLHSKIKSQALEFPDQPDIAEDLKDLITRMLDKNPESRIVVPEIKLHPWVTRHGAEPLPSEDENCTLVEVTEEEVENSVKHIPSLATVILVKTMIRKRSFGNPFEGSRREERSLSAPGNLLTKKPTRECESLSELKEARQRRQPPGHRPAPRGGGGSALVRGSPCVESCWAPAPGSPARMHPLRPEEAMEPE
Description: as §1

[4] = target: T2, BRSK1 (SAD1) (Homo sapiens, UniProt Q8TDC3)
T2 sequence (Q8TDC3 1-778): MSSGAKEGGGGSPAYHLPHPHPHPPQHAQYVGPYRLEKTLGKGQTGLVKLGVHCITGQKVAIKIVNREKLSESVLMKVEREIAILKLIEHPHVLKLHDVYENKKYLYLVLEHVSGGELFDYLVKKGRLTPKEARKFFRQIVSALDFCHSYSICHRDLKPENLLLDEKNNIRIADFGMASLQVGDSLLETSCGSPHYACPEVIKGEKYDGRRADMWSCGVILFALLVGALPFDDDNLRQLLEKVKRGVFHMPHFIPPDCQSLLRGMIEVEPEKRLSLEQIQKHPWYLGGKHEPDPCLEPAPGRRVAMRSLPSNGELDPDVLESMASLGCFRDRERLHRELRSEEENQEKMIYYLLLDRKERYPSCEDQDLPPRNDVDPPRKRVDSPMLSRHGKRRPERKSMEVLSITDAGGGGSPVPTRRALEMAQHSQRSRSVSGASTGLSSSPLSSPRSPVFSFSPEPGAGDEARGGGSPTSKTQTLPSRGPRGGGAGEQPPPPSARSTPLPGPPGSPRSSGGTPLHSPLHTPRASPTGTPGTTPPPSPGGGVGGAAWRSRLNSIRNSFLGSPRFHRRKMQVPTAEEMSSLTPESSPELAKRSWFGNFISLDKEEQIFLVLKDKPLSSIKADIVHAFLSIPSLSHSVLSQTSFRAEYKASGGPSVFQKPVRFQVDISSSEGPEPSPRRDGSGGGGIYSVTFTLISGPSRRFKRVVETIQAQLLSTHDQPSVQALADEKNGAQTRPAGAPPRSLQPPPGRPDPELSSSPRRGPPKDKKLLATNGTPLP
Description: as §1

[5] = target: ALK (Homo sapiens, UniProt Q9UM73)
Chain of ALK (Homo sapiens, UniProt Q9UM73) (Q9UM73 19-1620, species assumed): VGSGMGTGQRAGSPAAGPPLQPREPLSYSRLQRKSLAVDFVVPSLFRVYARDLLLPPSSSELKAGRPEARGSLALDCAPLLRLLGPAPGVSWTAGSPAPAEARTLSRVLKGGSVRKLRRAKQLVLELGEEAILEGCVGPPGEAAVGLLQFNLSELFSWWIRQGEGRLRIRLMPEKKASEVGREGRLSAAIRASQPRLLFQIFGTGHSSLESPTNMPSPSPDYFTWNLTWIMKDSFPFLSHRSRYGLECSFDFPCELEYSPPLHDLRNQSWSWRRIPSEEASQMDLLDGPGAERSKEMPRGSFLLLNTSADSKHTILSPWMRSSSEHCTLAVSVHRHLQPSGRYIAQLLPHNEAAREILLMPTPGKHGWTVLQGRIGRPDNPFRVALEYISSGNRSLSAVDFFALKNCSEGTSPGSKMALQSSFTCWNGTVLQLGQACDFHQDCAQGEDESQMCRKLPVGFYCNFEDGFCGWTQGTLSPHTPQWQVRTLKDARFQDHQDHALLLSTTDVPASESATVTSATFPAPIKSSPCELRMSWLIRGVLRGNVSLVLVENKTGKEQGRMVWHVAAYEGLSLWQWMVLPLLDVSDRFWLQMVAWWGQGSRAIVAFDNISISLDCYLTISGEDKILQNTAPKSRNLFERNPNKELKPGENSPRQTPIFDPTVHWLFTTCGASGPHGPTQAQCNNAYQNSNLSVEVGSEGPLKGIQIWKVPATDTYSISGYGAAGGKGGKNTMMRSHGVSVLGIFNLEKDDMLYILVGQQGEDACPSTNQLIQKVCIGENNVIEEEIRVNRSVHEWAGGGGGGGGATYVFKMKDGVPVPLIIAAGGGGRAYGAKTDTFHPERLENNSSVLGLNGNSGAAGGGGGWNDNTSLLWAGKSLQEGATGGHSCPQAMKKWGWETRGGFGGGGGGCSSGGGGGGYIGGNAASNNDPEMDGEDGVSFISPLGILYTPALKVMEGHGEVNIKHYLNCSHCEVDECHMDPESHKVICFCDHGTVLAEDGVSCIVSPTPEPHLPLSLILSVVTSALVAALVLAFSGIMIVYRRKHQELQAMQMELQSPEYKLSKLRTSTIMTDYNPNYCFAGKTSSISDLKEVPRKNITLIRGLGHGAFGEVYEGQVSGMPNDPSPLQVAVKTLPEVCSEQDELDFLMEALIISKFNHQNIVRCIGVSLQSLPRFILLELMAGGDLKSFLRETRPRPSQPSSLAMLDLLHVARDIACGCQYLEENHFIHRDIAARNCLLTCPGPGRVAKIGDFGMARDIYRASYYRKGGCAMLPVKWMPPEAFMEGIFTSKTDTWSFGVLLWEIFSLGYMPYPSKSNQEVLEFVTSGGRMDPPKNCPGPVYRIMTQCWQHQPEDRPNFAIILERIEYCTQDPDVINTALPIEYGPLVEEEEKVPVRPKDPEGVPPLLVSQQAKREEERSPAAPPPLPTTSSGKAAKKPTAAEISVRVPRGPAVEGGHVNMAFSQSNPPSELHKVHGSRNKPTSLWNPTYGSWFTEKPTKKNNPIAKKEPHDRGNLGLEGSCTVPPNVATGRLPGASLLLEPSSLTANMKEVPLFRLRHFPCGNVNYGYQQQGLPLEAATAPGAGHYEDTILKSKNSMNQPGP
Description: as §1

[6] = system: ALK; settings: IC50 on that kinase divided by IC50 on FES^S700C
Description: as §1

[7] = target: SGKL (SGK3) (Homo sapiens, UniProt Q96BR1)
Chain of SGKL (SGK3) (Q96BR1 whole entry): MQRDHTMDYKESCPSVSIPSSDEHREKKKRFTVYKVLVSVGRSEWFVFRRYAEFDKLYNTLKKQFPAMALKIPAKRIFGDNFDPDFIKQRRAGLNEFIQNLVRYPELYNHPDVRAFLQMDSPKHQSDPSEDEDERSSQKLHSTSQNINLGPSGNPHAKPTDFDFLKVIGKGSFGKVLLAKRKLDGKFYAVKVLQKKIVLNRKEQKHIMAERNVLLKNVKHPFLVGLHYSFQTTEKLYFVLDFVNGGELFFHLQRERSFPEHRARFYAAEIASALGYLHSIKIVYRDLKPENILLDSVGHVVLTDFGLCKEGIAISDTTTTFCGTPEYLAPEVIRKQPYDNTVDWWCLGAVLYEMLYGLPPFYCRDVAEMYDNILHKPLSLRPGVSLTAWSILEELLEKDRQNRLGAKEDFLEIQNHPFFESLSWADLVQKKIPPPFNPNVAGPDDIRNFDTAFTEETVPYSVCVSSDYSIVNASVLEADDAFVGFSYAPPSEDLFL
Description: as §1

[8] = target: T3, PRKCI (PKC iota) (Homo sapiens, UniProt P41743); settings: for Inhibition at 1 µM (%): PRKCI (PKC iota), ZLYTE, ATP Km app
T3 sequence (P41743 1-596): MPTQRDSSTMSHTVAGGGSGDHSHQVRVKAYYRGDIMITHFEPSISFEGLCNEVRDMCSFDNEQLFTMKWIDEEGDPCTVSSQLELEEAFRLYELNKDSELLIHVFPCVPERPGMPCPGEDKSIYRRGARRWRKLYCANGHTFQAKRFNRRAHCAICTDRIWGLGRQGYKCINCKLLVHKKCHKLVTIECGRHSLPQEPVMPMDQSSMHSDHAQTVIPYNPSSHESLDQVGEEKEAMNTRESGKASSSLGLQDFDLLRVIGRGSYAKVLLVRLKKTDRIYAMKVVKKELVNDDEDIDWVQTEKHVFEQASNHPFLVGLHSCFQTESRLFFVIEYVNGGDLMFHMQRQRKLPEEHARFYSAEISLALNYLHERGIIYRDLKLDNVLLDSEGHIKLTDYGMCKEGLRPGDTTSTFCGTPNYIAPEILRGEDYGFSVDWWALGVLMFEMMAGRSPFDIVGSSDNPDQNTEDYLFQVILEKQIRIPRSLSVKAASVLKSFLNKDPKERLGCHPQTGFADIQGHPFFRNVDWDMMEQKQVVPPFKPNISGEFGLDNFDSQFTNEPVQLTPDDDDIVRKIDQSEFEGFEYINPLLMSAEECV
Description: as §1

[9] = 1 h, 1 μM WEL028, 1 h preincubation

C#CCOc1ccc(Nc2ncc(Cl)c(Nc3ccccc3NC(=O)C=C)n2)c(OC)c1 [Compound 6]
inhibition at 1 µM [1, 9]: 9%
Inhibition at 1 µM (%) ([1]; EPHA3, 1 µM, LanthaScreen Binding, listed as WEL028, 1 µM): 8%
inhibition at 1 µM ([1]; read-out: Inhibition at 1 µM (%), EPHA3, 1 µM, LanthaScreen Binding): 10%
inhibition at 1 µM [2, 9]: 2%
Inhibition at 1 µM (%) [2]: -2%
Inhibition at 1 µM (%) ([2]; listed as WEL028, 1 µM): 6%
inhibition at 1 µM ([3]; 1 h): 23%
inhibition at 1 µM ([3]; read-out: Inhibition at 1 µM (%)): 23%
inhibition at 1 µM [4, 9]: 2%
Inhibition at 1 µM (%) ([4]; BRSK1 (SAD1), 1 µM, ZLYTE, ATP Km app, listed as WEL028, 1 µM): 1%
inhibition at 1 µM ([4]; read-out: Inhibition at 1 µM (%), BRSK1 (SAD1), 1 µM, ZLYTE, ATP Km app): 2%
IC50 [5]: 126 nM
inhibition at 1 µM [5, 9]: 89%
inhibition at 1 µM ([5]; read-out: Inhibition at 1 µM (%), ALK, 1 µM, ZLYTE, ATP Km app): 90%
Apparent fold selectivity [6]: 28 fold
Inhibition at 1 µM (%) ([7]; 1 µM, ZLYTE, ATP Km app, listed as WEL028, 1 µM): -12% and -2%
inhibition at 1 µM [7, 9]: -7%
inhibition at 1 µM [8, 9]: 10%
Inhibition at 1 µM (%) [8]: 15%
Inhibition at 1 µM (%) ([8]; listed as WEL028, 1 µM): 5%
